Assay [1] addresses T1, 5-HT1 receptor (Canis lupus familiaris, UniProt P79250).
T1 construct: The venae saphenae are rapidly removed and cut into rings; from tissue; host or cells: dog saphenous vein rings
Kind of assay: Contraction of the vena saphena isolated from dogs. Also noted: species or system dog. As to conditions: % of maximum effect induced by KCl, after phenoxybenzamine, cumulative doses 10^-9 to 10^-4 M, read-out: 50% effective concentration (EC50). Here is the method:
(§1) Contraction of the vena saphena
(§2) Experiments are carried out on venae saphenae of dogs (10-25kg) or rabbits (2-3 kg) anesthetized with pentobarbital (30 mg/kg i.v.). The venae saphenae are rapidly removed and cut into rings. These rings are mounted between two hooks in tanks thermostatically controlled at 37° C. containing physiological solution (composition in mM: NaCl118.3; KCl 4.7; CaCl2 2.5; MgSO4 1.2; KH2 PO4 1.2; NaHCO3 25.0; Ca-EDTA 0.026 and glucose 11.1). A mixture of 95% O2 /5% CO2 is bubbled through the physiological solution. The lower hook constitutes the fixed point whereas the upper hook is connected to an isometric force sensor. The tissues are put under a base tension of 1.5 grams (dogs) and 1 gram (rabbits). The pharmacological substances studied are prepared immediately before use; they are dissolved in water or in dimethyl sulfoxide.
(§3) After mounting, the preparations are left standing for 60 minutes, rinsings being carried out every 30 minutes. The organ is then brought into contact with phenoxybenzamine (5×10^-8 M) for 20 minutes. This agent is removed by several successive washings over 45 minutes. After readjusting the base tension, a contraction is caused by KCl (100 mM).

For assay [2], the target named is 5-HT1 receptor. Kind of assay: Contraction of the vena saphena isolated from rabbits. More on the design: species or system rabbit. As to conditions: % of maximum effect induced by KCl, after phenoxybenzamine, cumulative doses 10^-9 to 10^-4 M, read-out: 50% effective concentration (EC50). The method, then: as §1, §2, §3

This passage reports EC50 results from patent US5348968A, “Indole, indazole and benzisoxazole compounds” (Adir et Compagnie, priority 1993, dated 1994).

The structures appear in SMILES notation. Structures can show the parent of a compound that is named as a salt.

T1 sequence (P79250 whole entry): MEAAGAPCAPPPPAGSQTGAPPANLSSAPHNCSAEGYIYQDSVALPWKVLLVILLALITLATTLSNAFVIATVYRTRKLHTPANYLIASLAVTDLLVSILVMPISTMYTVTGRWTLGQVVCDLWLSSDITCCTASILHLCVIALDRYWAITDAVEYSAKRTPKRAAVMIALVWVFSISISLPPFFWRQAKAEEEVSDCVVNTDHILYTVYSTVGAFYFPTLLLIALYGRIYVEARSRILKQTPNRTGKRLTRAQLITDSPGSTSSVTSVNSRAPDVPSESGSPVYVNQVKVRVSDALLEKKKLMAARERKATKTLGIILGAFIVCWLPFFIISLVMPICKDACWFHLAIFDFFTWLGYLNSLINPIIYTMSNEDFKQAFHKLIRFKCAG

For the compound `CCCN1CCC(Cc2c[nH]c3ccc(C(N)=O)cc23)C1` (centres unmarked) [Example 17, 3-[(1-Propylpyrrolidin-3-yl)methyl]-5-aminocarbonylindole, oxalate], the EC50 was determined as 340 nM in assay [1] and 410 nM in assay [2].
